Literature values as cited in patent publication US20260216277A1, “TOPICAL COMPOSITIONS AND METHODS FOR TREATING ALOPECIA” (priority 2023, published 2026).

Tested on: radiation-induced alopecia
Conditions: whole brain radiotherapy

CC1(C)CC(O)CC(C)(C)N1[O] [Tempol, 4-hydroxy-2,2,6,6-tetramethylpiperidine-1-oxyl]
Safety and tolerability of topical application to the scalp before radiation: relatively safe and well tolerated
